In ChEMBL document CHEMBL1131743, “Structure-activity relationship for a series of 2-substituted 1,2,3,4-tetrahydro-9H-pyrido[3,4-b]indoles: potent subtype-selective inhibitors of N-methyl-D-aspartate (NMDA) receptors” (Bioorg Med Chem Lett, 1999):

What was measured:
[1] = Antagonist activity against rat 1A/2A subtype of N-methyl-D-aspartate (NMDA) receptor was determined by electrical assay in xenopus oocytes.; assay type: functional, cell-based; conditions: Oocyte
[2] = target: Glutamate NMDA receptor; Grin1/Grin2b (Rattus norvegicus, UniProt P35439+Q00960); test: Antagonist activity against rat 1A/2B subtype of N-methyl-D-aspartate (NMDA) receptor in xenopus oocytes.; assay type: functional, cell-based, Oocyte
[3] = Antagonist activity against rat 1A/2C subtype of N-methyl-D-aspartate (NMDA) receptor was determined by electrical assay in xenopus oocytes.; assay type: functional, cell-based; conditions: Oocyte

Glutamate NMDA receptor; Grin1/Grin2b, sequence (Q00960 whole entry, other chains not shown): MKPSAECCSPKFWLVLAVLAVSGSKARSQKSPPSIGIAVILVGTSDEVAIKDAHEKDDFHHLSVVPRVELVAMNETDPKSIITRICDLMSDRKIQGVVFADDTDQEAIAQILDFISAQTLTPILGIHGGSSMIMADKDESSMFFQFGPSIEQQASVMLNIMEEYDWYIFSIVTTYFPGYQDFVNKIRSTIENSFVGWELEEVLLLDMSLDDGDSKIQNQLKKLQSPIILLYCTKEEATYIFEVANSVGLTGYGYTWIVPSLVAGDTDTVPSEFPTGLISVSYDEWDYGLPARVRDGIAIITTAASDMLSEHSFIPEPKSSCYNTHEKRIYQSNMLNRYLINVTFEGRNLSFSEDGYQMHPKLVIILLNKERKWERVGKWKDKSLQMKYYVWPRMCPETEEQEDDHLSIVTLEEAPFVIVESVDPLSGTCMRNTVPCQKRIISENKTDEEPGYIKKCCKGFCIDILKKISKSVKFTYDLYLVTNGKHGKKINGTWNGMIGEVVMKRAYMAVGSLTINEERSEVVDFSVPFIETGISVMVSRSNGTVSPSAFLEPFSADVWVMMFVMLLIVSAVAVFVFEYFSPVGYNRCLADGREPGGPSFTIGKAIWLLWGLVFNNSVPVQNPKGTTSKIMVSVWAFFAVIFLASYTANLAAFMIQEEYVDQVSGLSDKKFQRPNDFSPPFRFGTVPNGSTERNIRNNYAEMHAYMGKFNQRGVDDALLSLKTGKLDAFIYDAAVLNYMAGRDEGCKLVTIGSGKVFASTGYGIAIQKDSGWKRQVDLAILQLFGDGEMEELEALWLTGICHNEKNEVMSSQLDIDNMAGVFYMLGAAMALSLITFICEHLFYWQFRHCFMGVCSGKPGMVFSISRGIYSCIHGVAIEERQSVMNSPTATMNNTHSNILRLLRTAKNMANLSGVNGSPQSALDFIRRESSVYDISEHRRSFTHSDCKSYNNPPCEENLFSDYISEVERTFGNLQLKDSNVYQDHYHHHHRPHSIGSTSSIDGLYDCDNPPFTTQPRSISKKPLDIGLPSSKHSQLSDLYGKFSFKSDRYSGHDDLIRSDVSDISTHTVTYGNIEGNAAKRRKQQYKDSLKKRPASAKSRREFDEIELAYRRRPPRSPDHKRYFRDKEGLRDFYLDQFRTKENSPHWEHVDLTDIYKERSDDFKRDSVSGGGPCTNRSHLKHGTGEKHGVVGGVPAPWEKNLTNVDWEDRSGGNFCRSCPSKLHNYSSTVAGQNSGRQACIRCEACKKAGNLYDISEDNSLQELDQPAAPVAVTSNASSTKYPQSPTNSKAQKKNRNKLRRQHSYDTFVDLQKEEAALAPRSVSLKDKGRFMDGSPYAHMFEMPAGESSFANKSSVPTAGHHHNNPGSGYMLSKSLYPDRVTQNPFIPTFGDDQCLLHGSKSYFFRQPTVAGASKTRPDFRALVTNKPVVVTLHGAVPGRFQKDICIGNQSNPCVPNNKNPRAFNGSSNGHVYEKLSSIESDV

| IC50 [1] | IC50 [2] | IC50 [3] | SMILES |
| --- | --- | --- | --- |
| 42 µM | 0.087 µM | 170 µM | Oc1ccc(CCCN2CCc3c([nH]c4ccccc34)C2)cc1 |
| 58 µM | 0.56 µM | 150 µM | Oc1ccc(CCCCN2CCc3c([nH]c4ccccc34)C2)cc1 |
| 57 µM | 0.05 µM | 67 µM | Oc1ccc2c3c([nH]c2c1)CN(CCCCc1ccccc1)CC3 |
| 74 µM | 3.8 µM | 140 µM | Oc1ccc(CCN2CCc3c([nH]c4ccccc34)C2)cc1 |
|  | 0.02 µM |  | Oc1ccc(CCCNCCCCc2ccccc2)cc1 |
| 97 µM | 0.14 µM | 180 µM | Oc1ccc2[nH]c3c(c2c1)CCN(CCCCc1ccccc1)C3 |

| SMILES | IC50 [1] | IC50 [2] | IC50 [3] |
| --- | --- | --- | --- |
| COc1ccc2[nH]c3c(c2c1)CCN(CCCCc1ccccc1)C3 | 110 µM | 14 µM | 132 µM |
| c1ccc(CCCCN2CCc3c([nH]c4ccccc34)C2)cc1 | 68 µM | 3.3 µM | 65 µM |
